Experiment: In vitro dissolution of multiple capsules together in 0.1 N HCl (USP Apparatus II)
Format: physicochemical
Protocol: To test the anti-over ingestion properties of the pharmaceutical composition, multiple capsules were combined in a single reaction vessel and percentage of API released was measured. […] The in vitro dissolutions studies of dextromethorphan from Amberlite™ IRP69 from multiple capsules (1, 5, and 10) were carried out in 0.1 HCl with each 200 mg capsule containing 40 mg of the drug.
An additional experiment was performed to support the concept that the ceiling effect was not caused by solubility/sink limitation, but rather by retention by sequestering.
Next, the possibility to gain the same sequestering effect using physical blend of drug with resin instead of drug resinate complex was explored.

Q: For COc1ccc2c(c1)[C@]13CCCC[C@@H]1[C@H](C2)N(C)CC3 [dextromethorphan], which “release from 1 capsule (40 mg) vs 10 capsules (400 mg) without resin” value is on record?
A: dose proportional release

Reference: patent US9849125B1, “Anti-overingestion dosage forms” (BANNER LIFE SCIENCES LLC, priority 2015, dated 2017)
